Reference: US20160272617A1, “SUBSTITUTED PHENYLALANINE DERIVATIVES” (BAYER PHARMA AKTIENGESELLSCHAFT, priority 2013, published 2016)
Structures can show the parent of a compound that is named as a salt.

Experiments:
human factor XIa = target: T1, human factor XIa (Homo sapiens, UniProt P03951); assay: Measurement of FXIa inhibition (fluorogenic peptide substrate Boc-Glu(OBzl)-Ala-Arg-AMC); format: biochemical; settings: factor XIa from Kordia, 15 min preincubation, 30 min at 22° C., fluorescence
T1 construct: purchased Kordia
Summary of the method: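 Released AMC fluorescence (360/460 nm) read after 30 min at 22 °C. The reaction was started with Boc-Glu(OBzl)-Ala-Arg-AMC (10 μM stock) after a 15 min preincubation of the enzyme (0.45 nM stock) with compound (final 50 μM to 0.00013 μM).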

human and animal plasma = assay: Determination of anticoagulatory activity: activated partial thromboplastin time (aPTT) in plasma; settings: concentration of test substance which brings about a 1.5-fold extension of the aPTT; plasma species not given
Summary of the method: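 Citrated plasma (1:9, 0.11 M citrate; 4000 g, 15 min) from human or animal blood incubated with test compound and cephalin/kaolin PTT reagent for 3 min at 37° C.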

T1 sequence (P03951 388-625 limits assumed): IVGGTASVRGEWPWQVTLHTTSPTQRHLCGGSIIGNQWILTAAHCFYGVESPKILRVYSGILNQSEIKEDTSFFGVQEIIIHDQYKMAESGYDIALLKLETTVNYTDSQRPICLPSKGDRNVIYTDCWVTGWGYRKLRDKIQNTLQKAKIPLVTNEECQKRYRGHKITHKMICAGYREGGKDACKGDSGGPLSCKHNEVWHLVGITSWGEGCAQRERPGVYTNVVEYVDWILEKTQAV
T1 sequence (P03951 19-387 partner limits assumed): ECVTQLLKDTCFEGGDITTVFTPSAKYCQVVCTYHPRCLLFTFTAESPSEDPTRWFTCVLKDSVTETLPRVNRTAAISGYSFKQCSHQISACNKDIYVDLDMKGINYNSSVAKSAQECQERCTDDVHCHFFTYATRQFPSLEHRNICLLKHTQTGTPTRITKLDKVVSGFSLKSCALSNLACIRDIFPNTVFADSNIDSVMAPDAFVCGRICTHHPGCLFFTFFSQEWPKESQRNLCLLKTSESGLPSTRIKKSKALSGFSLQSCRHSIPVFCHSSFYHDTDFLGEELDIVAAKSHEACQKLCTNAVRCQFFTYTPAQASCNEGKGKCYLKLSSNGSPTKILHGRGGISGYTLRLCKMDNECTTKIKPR

| SMILES | IC50 (human factor XIa) | aPTT (human and animal plasma) |
| --- | --- | --- |
| CNC1CCC(NC(=O)c2ccc(-c3ccc(C[C@H](NC(=O)[C@H]4CC[C@H](CN)CC4)C(=O)Nc4ccc(-c5nnn[nH]5)cc4)cc3)c(C)c2)CC1 (stereo partly drawn) [Example 147, 4′-[(2S)-2-({[trans-4-(Aminomethyl)cyclohexyl]carbonyl}amino)-3-oxo-3-{[4-(1H-tetrazol-5-yl)phenyl]amino}propyl]-2-methyl-N-[4-(methylamino)cyclohexyl]biphenyl-4-carboxamide hydrochloride] | 1.7 nM | 0.01 µmol/L |
| CCN(CC)CCNC(=O)c1ccc(-c2ccc(C[C@H](NC(=O)[C@H]3CC[C@H](CN)CC3)C(=O)Nc3ccc(-c4nn[nH]n4)cc3)cc2)c(C)c1.Cl [Example 2, 4′-[(2S)-2-({[trans-4-(Aminomethyl)cyclohexyl]carbonyl}amino)-3-oxo-3-{[4-(2H-tetrazol-5-yl)phenyl]amino}propyl]-N-[2-(diethylamino)ethyl]-2-methylbiphenyl-4-carboxamide hydrochloride] | 4.9 nM | 0.14 µmol/L |
| Cc1cc(C(=O)NC2CCNCC2)ccc1-c1ccc(C[C@H](NC(=O)[C@H]2CC[C@H](CN)CC2)C(=O)Nc2ccc3[nH]c(C(F)(F)C(F)(F)F)nc3c2)cc1 [Example 57, 4′-[(2S)-2-({[trans-4-(Aminomethyl)cyclohexyl]carbonyl}amino)-3-oxo-3-{[2-(pentafluoroethyl)-1H-benzimidazol-5-yl]amino}propyl]-2-methyl-N-(piperidin-4-yl)biphenyl-4-carboxamide hydrochloride] | 8.4 nM | 0.44 µmol/L |
| Cc1cc(C(=O)NC2CCNCC2)ccc1-c1ccc(C[C@H](NC(=O)[C@H]2CC[C@H](CN)CC2)C(=O)Nc2ccc(-c3nnc(Cl)[nH]3)cc2)cc1 [Example 49, 4′-[(2S)-2-({[trans-4-(Aminomethyl)cyclohexyl]carbonyl}amino)-3-{[4-(3-chloro-4H-1,2,4-triazol-5-yl)phenyl]amino}-3-oxopropyl]-2-methyl-N-(piperidin-4-yl)biphenyl-4-carboxamide hydrochloride] | 2.1 nM | 0.08 µmol/L |
| NC[C@H]1CC[C@H](C(=O)N[C@@H](Cc2ccc(-c3ccc(C(=O)N[C@@H]4CCNC4)cc3Cl)cc2)C(=O)Nc2ccc(-c3nn[nH]n3)cc2)CC1 [Example 12, 4′-[(2S)-2-({[trans-4-(Aminomethyl)cyclohexyl]carbonyl}amino)-3-oxo-3-{[4-(2H-tetrazol-5-yl)phenyl]amino}propyl]-2-chloro-N-[(3R)-pyrrolidin-3-yl]biphenyl-4-carboxamide hydrochloride] | 2.7 nM | 0.1 µmol/L |
| Cc1cc(C(=O)NC2CCNC(C)C2)ccc1-c1ccc(C[C@H](NC(=O)[C@H]2CC[C@H](CN)CC2)C(=O)Nc2ccc(-c3nn[nH]n3)cc2)cc1 (stereo partly drawn) [Example 32, 4′-[(2S)-2-({[trans-4-(Aminomethyl)cyclohexyl]carbonyl}amino)-3-oxo-3-{[4-(2H-tetrazol-5-yl)phenyl]amino}propyl]-2-methyl-N-(2-methylpiperidin-4-yl)biphenyl-4-carboxamide hydrochloride] | 3.4 nM | 0.09 µmol/L |
| Cc1cc(C(=O)N[C@@H]2CCNC2=O)ccc1-c1ccc(C[C@H](NC(=O)[C@H]2CC[C@H](CN)CC2)C(=O)Nc2ccc3cn[nH]c3c2)cc1 [Example 145, 4′-[(2S)-2-({[trans-4-(Aminomethyl)cyclohexyl]carbonyl}amino)-3-(1H-indazol-6-ylamino)-3-oxopropyl]-2-methyl-N-[(3R)-2-oxopyrrolidin-3-yl]biphenyl-4-carboxamide hydrochloride] | 3.2 nM | 0.07 µmol/L |
| Cc1cc(C(=O)NC2CCC(N(C)C)CC2)ccc1-c1ccc(C[C@H](NC(=O)[C@H]2CC[C@H](CN)CC2)C(=O)Nc2ccc(-c3nc(C(F)(F)C(F)(F)C(F)(F)F)n[nH]3)cc2)cc1 (stereo partly drawn) [Example 87, 4′-[(2S)-2-({[trans-4-(Aminomethyl)cyclohexyl]carbonyl}amino)-3-({4-[3-(heptafluoropropyl)-1H-1,2,4-triazol-5-yl]phenyl}amino)-3-oxopropyl]-N-[4-(dimethylamino)cyclohexyl]-2-methylbiphenyl-4-carboxamide hydrochloride] | 2.8 nM | 0.47 µmol/L |
| Cc1c(C(=O)NC2CCNCC2)ccc(-c2ccc(C[C@H](NC(=O)[C@H]3CC[C@H](CN)CC3)C(=O)Nc3ccc(-c4nn[nH]n4)cc3)cc2)c1Cl [Example 124, 4′-[(2S)-2-({[trans-4-(Aminomethyl)cyclohexyl]carbonyl}amino)-3-oxo-3-{[4-(2H-tetrazol-5-yl)phenyl]amino}propyl]-2-chloro-3-methyl-N-(piperidin-4-yl)biphenyl-4-carboxamide hydrochloride] | 1.8 nM | 0.1 µmol/L |
| Cc1cc(C(=O)NC2CCNCC2)ccc1-c1ccc(C[C@H](NC(=O)[C@H]2CC[C@H](CN)CC2)C(=O)Nc2ccc3[nH]c(-c4ccccn4)nc3c2)cc1 [Example 51, 4′-[(2S)-2-({[trans-4-(Aminomethyl)cyclohexyl]carbonyl}amino)-3-oxo-3-{[2-(pyridin-2-yl)-1H-benzimidazol-5-yl]amino}propyl]-2-methyl-N-(piperidin-4-yl)biphenyl-4-carboxamide hydrochloride] | 11 nM | 0.44 µmol/L |
| CCN(CC)CCCNC(=O)c1ccc(-c2ccc(C[C@H](NC(=O)[C@H]3CC[C@H](CN)CC3)C(=O)Nc3ccc(-c4nn[nH]n4)cc3)cc2)c(C)c1 [Example 29, 4′-[(2S)-2-({[trans-4-(Aminomethyl)cyclohexyl]carbonyl}amino)-3-oxo-3-{[4-(2H-tetrazol-5-yl)phenyl]amino}propyl]-N-[3-(diethylamino)propyl]-2-methylbiphenyl-4-carboxamide hydrochloride] | 3 nM | 0.14 µmol/L |
| COCCOCCOCCOCCNC(=O)c1ccc(-c2ccc(C[C@H](NC(=O)[C@H]3CC[C@H](CN)CC3)C(=O)Nc3ccc(-c4nn[nH]n4)cc3)cc2)c(C)c1 [Example 27, 4′-[(2S)-2-({[trans-4-(Aminomethyl)cyclohexyl]carbonyl}amino)-3-oxo-3-{[4-(2H-tetrazol-5-yl)phenyl]amino}propyl]-2-methyl-N-(2,5,8,11-tetraoxatridecan-13-yl)biphenyl-4-carboxamide hydrochloride] | 2.8 nM | 0.24 µmol/L |
| Cc1cc(C(=O)N[C@@H]2CCCNC2=O)ccc1-c1ccc(C[C@H](NC(=O)[C@H]2CC[C@H](CN)CC2)C(=O)Nc2ccc(-c3nnc(C(F)(F)C(F)(F)C(=O)O)[nH]3)cc2)cc1 [Example 166, 3-[5-(4-{[(2S)-2-({[trans-4-(Aminomethyl)cyclohexyl]carbonyl}amino)-3-(2′-methyl-4′-{[(3R)-2-oxopiperidin-3-yl]carbamoyl}biphenyl-4-yl)propanoyl]amino}phenyl)-4H-1,2,4-triazol-3-yl]-2,2,3,3-tetrafluoropropanoic acid hydrochloride] | 0.8 nM | 0.09 µmol/L |
| Cc1cc(C(=O)N[C@H]2CC[C@H](N)CC2)ccc1-c1ccc(C[C@H](NC(=O)[C@H]2CC[C@H](CN)CC2)C(=O)Nc2ccc(-c3nn[nH]n3)cc2)cc1 [Example 34, N-(trans-4-Aminocyclohexyl)-4′-[(2S)-2-({[trans-4-(aminomethyl)cyclohexyl]carbonyl}amino)-3-oxo-3-{[4-(2H-tetrazol-5-yl)phenyl]amino}propyl]-2-methylbiphenyl-4-carboxamide hydrochloride] | 1.4 nM | 0.11 µmol/L |
| NC[C@H]1CC[C@H](C(=O)N[C@@H](Cc2ccc(-c3ccc(C(=O)NC4CCNCC4)c(C(F)(F)F)c3)cc2)C(=O)Nc2ccc(-c3nn[nH]n3)cc2)CC1 [Example 120, 4′-[(2S)-2-({[trans-4-(Aminomethyl)cyclohexyl]carbonyl}amino)-3-oxo-3-{[4-(2H-tetrazol-5-yl)phenyl]amino}propyl]-N-(piperidin-4-yl)-3-(trifluoromethyl)biphenyl-4-carboxamide hydrochloride] | 6.7 nM | 0.14 µmol/L |
| Cc1cc(C(=O)NC2CCC(N(C)C)CC2)ccc1-c1ccc(C[C@H](NC(=O)[C@H]2CC[C@H](CN)CC2)C(=O)Nc2ccc(-c3nnc(C(F)(F)C(F)(F)C(F)(F)C(=O)O)[nH]3)cc2)cc1 (stereo partly drawn) [Example 148, 4-[5-(4-{[(2S)-2-({[trans-4-(Aminomethyl)cyclohexyl]carbonyl}amino)-3-(4′-{[4-(dimethylamino)cyclohexyl]carbamoyl}-2′-methylbiphenyl-4-yl)propanoyl]amino}phenyl)-4H-1,2,4-triazol-3-yl]-2,2,3,3,4,4-hexafluorobutanoic acid hydrochloride] | 1 nM | 0.07 µmol/L |
| NC[C@H]1CC[C@H](C(=O)N[C@@H](Cc2ccc(-c3ccc(C(=O)N4CCNCC4)cc3)cc2)C(=O)Nc2ccc(-c3nn[nH]n3)cc2)CC1 [Example 47, trans-4-(Aminomethyl)-N-[(2S)-1-oxo-3-[4′-(piperazin-1-ylcarbonyl)biphenyl-4-yl]-1-{[4-(2H-tetrazol-5-yl)phenyl]amino}propan-2-yl]cyclohexanecarboxamide trifluoroacetate] | 16 nM | 0.51 µmol/L |
| Cc1cc(C(=O)N[C@H]2CC[C@H](O)CC2)ccc1-c1ccc(C[C@H](NC(=O)[C@H]2CC[C@H](CN)CC2)C(=O)Nc2ccc(-c3nnc(C(F)(F)C(F)(F)C(=O)O)[nH]3)cc2)cc1 (single isomer, unassigned; enantiomer 1) [Example 104] | 0.4 nM | 0.05 µmol/L |
